Patent US20230355602A1, “TREATMENT AND/OR PREVENTION OF A VIRAL INFECTION” (priority 2020, published 2023)

Legend:
SARS-CoV-2-Nluc viruses = assay: microbe, parasite or virus in culture; format: cell-based
in vitro [1] = format: cell-based; conditions: human
Procedure: (§1) 12k cells (A549) per well in a 96-well plate. The compounds are added on the next day. 48 hrs treatment. 3-fold serial dilution for ASLAN 003 starting from 10 μM.

A549 cells = assay: in vitro; format: cell-based; conditions: human, 48 h
Procedure: as §1

in vitro [2] = format: cell-based; conditions: African green monkey
Procedure: Vero E6 cells were treated with the above compounds ata range of concentrations (0.0001, 0.001, 0.01, 1,10, 30, 50, and 100 μM) and incubated for 4 days. After incubation, the media was removed from the plates and washed once with PBS before addition of alamarBlue Cell Viability Reagent (Thermo Fisher Scientific) diluted 1:10 in media with 2% FCS. Fluorescence was detected after 2.5 h incubation at an excitation wavelength of 570 nm and an emission wavelength of 600 nm on an Infinite 200 Pro multiplate reader (Tecan). Data obtained from compound-treated cells and vehicle-treated cells were normalised against those obtained from untreated cells.

[3] = system: SARS-CoV-2 (hCoV-19/Singapore/10/2020); assay: Dose-dependent inhibition assay with plaque assay titration in Vero E6 cells; format: cell-based
[4] = system: Dengue virus (serotypes 1, 2, 3 or 4); assay: Dengue virus assay in Huh7 cells (viral titer); format: cell-based
Zika virus = Zika virus assay in Huh7 cells (viral titer); format: cell-based
CHIKV = assay: Chikungunya virus assay in Huh7 cells (viral titer); format: cell-based
[5] = human, in vivo
clinical = conditions: human, in vivo
[6] = Severe acute respiratory syndrome coronavirus 2, Vero C1008, 96 h

For `COc1cccc(-c2cc(F)c(Nc3ncccc3C(=O)O)c(F)c2)c1` [ASLAN003, 2-(3,5-difluoro-3′-methoxybiphenyl-4-ylamino) nicotinic acid], the “efficacy (potency) against SARS-CoV-2” value (SARS-CoV-2-Nluc viruses) was “sub-micromolar potency”, the IC50 (SARS-CoV-2-Nluc viruses; Severe acute respiratory syndrome coronavirus 2, 48 h, read-out: SARS-COV-2 Reporter Assay (IC50, μM)) was 0.812 µM and the IC50 at 48 h (in vitro [1]) was greater than 10 µM. For the same molecule, the IC50 (A549 cells) was greater than 10 µM, the “change in A549 cell viability” value (A549 cells) was “no change in A549 cell viability” and the CC50 at 4 days (in vitro [2]) was 87.2 µM. The EC50 [3, 6] was 0.00142 µM, the EC90 [3, 6] was 0.00388 µM and the “inhibition of SARS-CoV-2 in Vero E6 cells (viral titre)” value ([3]; treated post virus infection, 0.0001 to 100 μM) was “Dosage dependent inhibition”. The “efficacy (potency) against Dengue” value [4] was “sub-micromolar potency”, the “efficacy (potency) against Zika” value (Zika virus) was “sub-micromolar potency” and the “efficacy (potency) against Chikugunya” value (CHIKV) was “sub-micromolar potency”. The “PK profiles in Asian and Caucasian patients” value [5] was “equivalent”, the “safety and tolerability, liver enzyme rises” value [5] was “safe and well-tolerated with no evidence of significant liver enzyme rises” and the “time until full exposure is achieved” value [5] was no more than 24 h. It also gave a half-life (clinical) of 18 h.
